ChEMBL document CHEMBL1201862, “PubChem BioAssay data set” (2004)
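Test compounds were applied to cells in 96-well plates for 48 hours at 5 doses. At the GI50, growth is halved.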 Activity calls are given as the source filed them. Cut-off read from the data, not from the text of the source: active = GI50 up to about 1.1 µM and inactive = higher.

Columns and labels:
Test in all cases: NCI tumour cell line growth inhibition, 48 h
PC-3 = system: PC-3
RXF 393 = system: RXF 393
HT-29 = system: HT-29
RPMI-8226 = system: RPMI-8226
UACC-257 = system: UACC-257
BT-549 = system: BT-549
MCF7 = system: MCF7
HCT-116 = system: HCT-116
NCI-H23 = system: NCI-H23
OVCAR-8 = system: OVCAR-8
SW-620 = system: SW-620
HOP-62 = system: HOP-62
NCI-H522 = system: NCI-H522
OVCAR-4 = system: OVCAR-4
SK-OV-3 = system: SK-OV-3
SF-295 = system: SF-295
HOP-92 = system: HOP-92
SK-MEL-28 = system: SK-MEL-28
SK-MEL-5 = system: SK-MEL-5
UACC-62 = system: UACC-62

SMILES | GI50 (PC-3) | GI50 (RXF 393) | GI50 (HT-29) | GI50 (RPMI-8226) | GI50 (UACC-257) | GI50 (BT-549) | GI50 (MCF7) | GI50 (HCT-116) | GI50 (NCI-H23) | GI50 (OVCAR-8) | GI50 (SW-620) | GI50 (HOP-62) | GI50 (NCI-H522) | GI50 (OVCAR-4) | GI50 (SK-OV-3) | GI50 (SF-295) | GI50 (HOP-92) | GI50 (SK-MEL-28) | GI50 (SK-MEL-5) | GI50 (UACC-62)
CCC1c2[nH]c3ccccc3c2C[C@H]2C(=O)NC(COC(C)(C)C)C(=O)N12 (stereo partly specified) | 28.5 µM (inactive) | 55.5 µM (inactive) | 38.2 µM (inactive) | 32.4 µM (inactive) | 25.2 µM (inactive) | 34 µM (inactive) | 41.8 µM (inactive) | 41.6 µM (inactive) | 32.9 µM (inactive) | 39.4 µM (inactive) | 69 µM (inactive) | 76.6 µM (inactive) | 38.5 µM (inactive) | 39.1 µM (inactive) | 63 µM (inactive) | 19.4 µM (inactive) | 21.2 µM (inactive) | 86.3 µM (inactive) | 27.8 µM (inactive) | 53.3 µM (inactive)
CC(=O)Nc1ccc(S(=O)(=O)/N=C2\C=CC(=O)c3ccccc32)cc1 | 3.28 µM (inactive) | 6.38 µM (inactive) | 13.6 µM (inactive) | 4.56 µM (inactive) | 6.22 µM (inactive) | 12.1 µM (inactive) | 5.01 µM (inactive) | 5.24 µM (inactive) | 4.22 µM (inactive) | 2.8 µM (inactive) | 6.62 µM (inactive) | 8.83 µM (inactive) | 14.5 µM (inactive) | 1.87 µM (inactive) | 16.5 µM (inactive) | 7.29 µM (inactive) | 5.07 µM (inactive) | 10.5 µM (inactive) | 2.88 µM (inactive) | 5.51 µM (inactive)
CC(C)NC(=O)OCc1c2c(n(C)c1COC(=O)NC(C)C)-c1cc(Cl)c(Cl)cc1CC2 | 32.9 µM (inactive) | 21.7 µM (inactive) | 31 µM (inactive) | 23.4 µM (inactive) | 28.4 µM (inactive) | 68.2 µM (inactive) | 15.8 µM (inactive) | 24.8 µM (inactive) | 22.1 µM (inactive) | 31 µM (inactive) | 45.7 µM (inactive) | 54.5 µM (inactive) | – | 64.6 µM (inactive) | 33.7 µM (inactive) | 46.5 µM (inactive) | 19.5 µM (inactive) | 64.1 µM (inactive) | 42.7 µM (inactive) | 43.9 µM (inactive)
Cc1ccc(C(=O)N/N=C(\N=N\c2ccc([N+](=O)[O-])cc2)c2ccc(N(CCC#N)CCC#N)cc2C)cc1 | 50.1 µM (inactive) | 16.7 µM (inactive) | 34.3 µM (inactive) | > 100 µM (inactive) | 77.6 µM (inactive) | 47.1 µM (inactive) | 83.6 µM (inactive) | 54.8 µM (inactive) | > 100 µM (inactive) | 28.1 µM (inactive) | > 100 µM (inactive) | 71.4 µM (inactive) | – | 99.8 µM (inactive) | > 100 µM (inactive) | 57.9 µM (inactive) | > 100 µM (inactive) | 97.1 µM (inactive) | 75.3 µM (inactive) | –
CC(=O)OC/C=C/Cn1nc(Br)c(=O)[nH]c1=O | > 100 µM (inactive) | > 100 µM (inactive) | > 100 µM (inactive) | > 100 µM (inactive) | > 100 µM (inactive) | > 100 µM (inactive) | > 100 µM (inactive) | > 100 µM (inactive) | > 100 µM (inactive) | > 100 µM (inactive) | > 100 µM (inactive) | > 100 µM (inactive) | > 100 µM (inactive) | > 100 µM (inactive) | – | > 100 µM (inactive) | > 100 µM (inactive) | > 100 µM (inactive) | > 100 µM (inactive) | > 100 µM (inactive)
O=c1[nH]ncc2[nH]c3c4ccccc4ccc3c12 | 39.2 µM (inactive) | 46.2 µM (inactive) | 39 µM (inactive) | 38.5 µM (inactive) | – | 93.8 µM (inactive) | 18.4 µM (inactive) | 42.2 µM (inactive) | – | 51.3 µM (inactive) | 41.3 µM (inactive) | 40.6 µM (inactive) | 19 µM (inactive) | 44.5 µM (inactive) | 31.1 µM (inactive) | 22.6 µM (inactive) | 14 µM (inactive) | – | 28.1 µM (inactive) | –
COC1/C=C/C=C(/C)Cc2cc(O)c(Cl)c(c2)N(C)C(=O)CC(OC(=O)C(C)C)C2(C)OC2C(C)C2CC1(O)NC(=O)O2 (stereo unspecified) | < 0.01 µM (active) | < 0.01 µM (active) | < 0.01 µM (active) | < 0.01 µM (active) | 4.89 µM (inactive) | < 0.01 µM (active) | < 0.01 µM (active) | < 0.01 µM (active) | < 0.01 µM (active) | < 0.01 µM (active) | < 0.01 µM (active) | 0.0673 µM (active) | < 0.01 µM (active) | < 0.01 µM (active) | < 0.01 µM (active) | < 0.01 µM (active) | 64.9 µM (inactive) | – | < 0.01 µM (active) | < 0.01 µM (active)
